Laboratory results: ChEMBL document CHEMBL3784925, “Discovery of a New Inhibitor of Myeloid Differentiation 2 from Cinnamamide Derivatives with Anti-Inflammatory Activity in Sepsis and Acute Lung Injury” (J Med Chem, 2016)
Activity calls are given as the source filed them. The rule behind the calls is not given here.

What was measured:
Mus musculus [1] = experiment: Antiinflammatory activity in acute lung injury C57BL/6 mouse model assessed as inhibition of LPS-induced infiltration of inflammatory cells at 20 mg/kg, po treated 15 mins before LPS challenge measured after 6 hrs by hematoxylin and eosin staining based light microscopic analysis; assay type: functional, organism-based
Mus musculus [2] = experiment: Antiinflammatory activity in acute lung injury C57BL/6 mouse model assessed as inhibition of LPS-induced macrophage infilteration by measuring reduction in CD68 expression in lung tissues at 20 mg/kg, po treated 15 mins before LPS challenge measured after 6 hrs by DAB staining based immunohistochemical analysis; assay type: functional, organism-based
Mus musculus [3] = experiment: Antiinflammatory activity in acute lung injury C57BL/6 mouse model assessed as inhibition of LPS-induced increase in neutrophil level in bronchoalveolar lavage fluid at 20 mg/kg, po treated 15 mins before LPS challenge measured after 6 hrs by wright-gimesa staining based assay; assay type: functional, organism-based
Mus musculus [4] = experiment: Antiinflammatory activity in acute lung injury C57BL/6 mouse model assessed as inhibition of LPS-induced increase in total cells in bronchoalveolar lavage fluid at 20 mg/kg, po treated 15 mins before LPS challenge measured after 6 hrs by cell counting method; assay type: functional, organism-based
[5] = Cmax in Sprague-Dawley rat plasma at 20 mg/kg, po after 12 hrs by UPLC analysis; assay type: ADME, organism-based; parameters: dose 20 mg/kg, route oral
[6] = target: Mitogen-activated protein kinase 14 (Homo sapiens) (UniProt Q16539); experiment: Inhibition of recombinant human N-terminal GST-tagged p38-alpha (9 to 352 residues) expressed in Escherichia coli using modified erktide as substrate at 0.05 to 50 uM after 1 hr by microfluidic assay
Mus musculus [7] = experiment: Antiinflammatory activity in LPS-induced septic shock C57BL/6 mouse model assessed as mouse survival at 10 mg/kg, iv treated 15 mins before LPS challenge measured for 7 days relative to control; assay type: functional; conditions: C57BL/6, iv
[8] = target: Toll-like receptor 2 (Mus musculus) (UniProt Q9QUN7); experiment: Inhibition of TLR2 in mouse RAW264.7 cells assessed as inhibition of Pam3CK-induced TNF-alpha level at 5 to 10 uM preincubated for 2 hrs followed by Pam3CK addition measured after 12 hrs by ELISA; assay type: cell-based
Mus musculus [9] = experiment: In vivo inhibition of LPS-induced MD2/TLR4 complex formation in lung tissues of acute lung injury C57BL/6 mouse model at 20 mg/kg, po treated 15 mins before LPS challenge measured after 6 hrs by immunoprecipitation assay; assay type: functional, organism-based
[10] = target: T1, Inhibitor of nuclear factor kappa-B kinase subunit beta (Homo sapiens) (UniProt O14920); experiment: Inhibition of recombinant human N-terminal His-tagged IKKbeta (1 to 662 residues) expressed in baculovirus expression system using modified IkBalpha-derived peptide as substrate at 0.05 to 50 uM after 1 hr by microfluidic assay
T1 sequence (whole entry): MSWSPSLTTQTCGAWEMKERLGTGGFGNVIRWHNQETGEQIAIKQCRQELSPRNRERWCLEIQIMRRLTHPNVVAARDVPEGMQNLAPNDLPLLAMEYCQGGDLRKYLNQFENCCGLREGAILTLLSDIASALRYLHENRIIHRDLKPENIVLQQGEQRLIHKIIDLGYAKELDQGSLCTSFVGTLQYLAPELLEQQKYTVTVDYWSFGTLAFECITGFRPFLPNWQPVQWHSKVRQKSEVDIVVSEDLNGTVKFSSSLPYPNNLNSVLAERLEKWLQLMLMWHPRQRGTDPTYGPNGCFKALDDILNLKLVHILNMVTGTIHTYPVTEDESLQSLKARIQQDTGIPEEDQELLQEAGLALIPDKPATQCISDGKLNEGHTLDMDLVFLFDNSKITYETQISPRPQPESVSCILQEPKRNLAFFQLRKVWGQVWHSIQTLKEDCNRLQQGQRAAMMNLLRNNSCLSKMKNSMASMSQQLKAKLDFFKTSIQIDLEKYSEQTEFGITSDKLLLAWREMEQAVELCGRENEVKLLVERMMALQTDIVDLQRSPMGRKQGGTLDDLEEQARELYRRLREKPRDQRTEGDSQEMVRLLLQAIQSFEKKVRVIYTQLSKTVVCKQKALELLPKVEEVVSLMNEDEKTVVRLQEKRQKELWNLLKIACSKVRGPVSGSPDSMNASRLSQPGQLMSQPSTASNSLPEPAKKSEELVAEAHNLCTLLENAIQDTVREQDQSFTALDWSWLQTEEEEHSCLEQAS

[11] = target: Mitogen-activated protein kinase 11 (Homo sapiens) (UniProt Q15759); experiment: Inhibition of full length recombinant human N-terminal GST-tagged p38-beta (1 to 364 residues) expressed in Escherichia coli using modified erktide as substrate at 0.05 to 50 uM after 1 hr by microfluidic assay
[12] = Cmax in Sprague-Dawley rat plasma at 20 mg/kg, po measured immediately post treatment by UPLC analysis; assay type: ADME, organism-based; parameters: dose 20 mg/kg, route oral
[13] = target: Toll-like receptor 4 (Homo sapiens) (UniProt O00206); experiment: Binding affinity to recombinant human TLR4 at 6.25 to 100 uM by surface plasmon resonance analysis
[14] = Cmax in Sprague-Dawley rat plasma at 10 mg/kg, iv after 24 hrs by UPLC analysis; assay type: ADME, organism-based; parameters: dose 10 mg/kg, route intravenous
Mus musculus [15] = experiment: Antiinflammatory activity in acute lung injury C57BL/6 mouse model assessed as inhibition of LPS-induced interstitial edema at 20 mg/kg, po treated 15 mins before LPS challenge measured after 6 hrs by hematoxylin and eosin staining based light microscopic analysis; assay type: functional, organism-based
[16] = Cmax in Sprague-Dawley rat plasma at 10 mg/kg, iv measured immediately post treatment by UPLC analysis; assay type: ADME, organism-based; parameters: dose 10 mg/kg, route intravenous
[17] = target: Mitogen-activated protein kinase 9 (Homo sapiens) (UniProt P45984); experiment: Inhibition of recombinant human N-terminal GST-tagged JNK2 catalytic domain (1 to 364 residues) expressed in Escherichia coli using modified erktide as substrate at 0.05 to 50 uM after 1 hr by microfluidic assay
Mus musculus [18] = experiment: Antiinflammatory activity in acute lung injury C57BL/6 mouse model assessed as inhibition of LPS-induced TNF-alpha mRNA expression in lung tissues at 20 mg/kg, po treated 15 mins before LPS challenge measured after 6 hrs; assay type: functional, organism-based
Mus musculus [19] = experiment: Antiinflammatory activity in acute lung injury C57BL/6 mouse model assessed as inhibition of LPS-induced thickening of alveolar wall at 20 mg/kg, po treated 15 mins before LPS challenge measured after 6 hrs by hematoxylin and eosin staining based light microscopic analysis; assay type: functional, organism-based
[20] = target: Mitogen-activated protein kinase 3 (Homo sapiens) (UniProt P27361); experiment: Inhibition of full length recombinant human N-terminal GST-tagged ERK1 (1 to 379 residues) expressed in Escherichia coli using modified erktide as substrate at 0.05 to 50 uM after 1 hr by microfluidic assay
Mus musculus [21] = experiment: Antiinflammatory activity in acute lung injury C57BL/6 mouse model assessed as inhibition of LPS-induced IL-1beta mRNA expression in lung tissues at 20 mg/kg, po treated 15 mins before LPS challenge measured after 6 hrs; assay type: functional, organism-based
[22] = target: Toll-like receptor 2 (Mus musculus) (UniProt Q9QUN7); experiment: Inhibition of TLR2 in mouse RAW264.7 cells assessed as inhibition of Pam3CK-induced IL-6 level at 5 to 10 uM preincubated for 2 hrs followed by Pam3CK addition measured after 12 hrs by ELISA; assay type: cell-based
Mus musculus [23] = experiment: Antiinflammatory activity in acute lung injury C57BL/6 mouse model assessed as inhibition of LPS-induced lung edema at 20 mg/kg, po treated 15 mins before LPS challenge measured after 6 hrs; assay type: functional, organism-based
Mus musculus [24] = experiment: Antiinflammatory activity in acute lung injury C57BL/6 mouse model assessed as inhibition of LPS-induced increase in protein concentration in bronchoalveolar lavage fluid at 20 mg/kg, po treated 15 mins before LPS challenge measured after 6 hrs; assay type: functional, organism-based
Mus musculus [25] = experiment: Antiinflammatory activity in acute lung injury C57BL/6 mouse model assessed as inhibition of LPS-induced MPO activity in lung tissues at 20 mg/kg, po treated 15 mins before LPS challenge measured after 6 hrs; assay type: functional, organism-based
Mus musculus [26] = experiment: Antiinflammatory activity in acute lung injury C57BL/6 mouse model assessed as inhibition of LPS-induced pulmonary congestion at 20 mg/kg, po treated 15 mins before LPS challenge measured after 6 hrs by hematoxylin and eosin staining based light microscopic analysis; assay type: functional, organism-based
Mus musculus [27] = experiment: Antiinflammatory activity in acute lung injury C57BL/6 mouse model assessed as inhibition of LPS-induced IL-6 mRNA expression in lung tissues at 20 mg/kg, po treated 15 mins before LPS challenge measured after 6 hrs; assay type: functional, organism-based
[28] = Cytotoxicity against C57BL/6 mouse primary peritoneal macrophages assessed as reduction in cell viability at 10 uM after 24 hrs by MTT assay; assay type: cell-based; conditions: peritoneal macrophage cell

Toll-like receptor 2 (Mus musculus), sequence (Q9QUN7 whole entry): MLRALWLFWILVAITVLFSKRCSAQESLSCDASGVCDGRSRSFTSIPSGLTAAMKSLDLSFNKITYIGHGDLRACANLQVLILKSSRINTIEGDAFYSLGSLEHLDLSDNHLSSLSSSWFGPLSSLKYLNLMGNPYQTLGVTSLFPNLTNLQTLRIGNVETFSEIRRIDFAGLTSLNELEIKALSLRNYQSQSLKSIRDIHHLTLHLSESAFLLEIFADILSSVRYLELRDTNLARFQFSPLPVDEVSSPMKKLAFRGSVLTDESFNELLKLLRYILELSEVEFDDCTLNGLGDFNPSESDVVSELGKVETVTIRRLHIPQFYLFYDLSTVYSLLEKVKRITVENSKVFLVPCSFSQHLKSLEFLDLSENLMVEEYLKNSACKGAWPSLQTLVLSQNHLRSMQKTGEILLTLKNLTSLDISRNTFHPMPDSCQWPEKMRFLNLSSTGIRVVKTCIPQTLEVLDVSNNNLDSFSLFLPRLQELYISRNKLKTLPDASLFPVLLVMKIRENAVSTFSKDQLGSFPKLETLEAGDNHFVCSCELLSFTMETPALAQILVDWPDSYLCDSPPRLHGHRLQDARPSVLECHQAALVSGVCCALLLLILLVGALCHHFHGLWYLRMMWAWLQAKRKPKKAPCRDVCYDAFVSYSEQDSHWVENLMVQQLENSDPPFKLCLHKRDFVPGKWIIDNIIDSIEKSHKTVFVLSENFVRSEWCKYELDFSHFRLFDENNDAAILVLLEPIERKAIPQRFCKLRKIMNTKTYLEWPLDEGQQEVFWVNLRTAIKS
Mitogen-activated protein kinase 9 (Homo sapiens), sequence (P45984 whole entry, looked up, the tested form may be a part): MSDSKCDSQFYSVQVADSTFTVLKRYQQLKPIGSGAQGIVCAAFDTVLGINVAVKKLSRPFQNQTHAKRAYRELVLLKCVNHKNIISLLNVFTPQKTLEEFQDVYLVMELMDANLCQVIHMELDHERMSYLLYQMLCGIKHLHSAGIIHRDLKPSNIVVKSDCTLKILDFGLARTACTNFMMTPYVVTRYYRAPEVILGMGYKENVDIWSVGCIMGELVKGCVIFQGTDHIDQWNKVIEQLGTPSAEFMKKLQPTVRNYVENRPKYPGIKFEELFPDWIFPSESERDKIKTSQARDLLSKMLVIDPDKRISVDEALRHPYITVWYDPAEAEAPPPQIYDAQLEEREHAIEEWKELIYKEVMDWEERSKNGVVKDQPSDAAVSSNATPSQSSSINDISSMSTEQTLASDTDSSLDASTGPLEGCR
Toll-like receptor 4 (Homo sapiens), sequence (O00206 whole entry): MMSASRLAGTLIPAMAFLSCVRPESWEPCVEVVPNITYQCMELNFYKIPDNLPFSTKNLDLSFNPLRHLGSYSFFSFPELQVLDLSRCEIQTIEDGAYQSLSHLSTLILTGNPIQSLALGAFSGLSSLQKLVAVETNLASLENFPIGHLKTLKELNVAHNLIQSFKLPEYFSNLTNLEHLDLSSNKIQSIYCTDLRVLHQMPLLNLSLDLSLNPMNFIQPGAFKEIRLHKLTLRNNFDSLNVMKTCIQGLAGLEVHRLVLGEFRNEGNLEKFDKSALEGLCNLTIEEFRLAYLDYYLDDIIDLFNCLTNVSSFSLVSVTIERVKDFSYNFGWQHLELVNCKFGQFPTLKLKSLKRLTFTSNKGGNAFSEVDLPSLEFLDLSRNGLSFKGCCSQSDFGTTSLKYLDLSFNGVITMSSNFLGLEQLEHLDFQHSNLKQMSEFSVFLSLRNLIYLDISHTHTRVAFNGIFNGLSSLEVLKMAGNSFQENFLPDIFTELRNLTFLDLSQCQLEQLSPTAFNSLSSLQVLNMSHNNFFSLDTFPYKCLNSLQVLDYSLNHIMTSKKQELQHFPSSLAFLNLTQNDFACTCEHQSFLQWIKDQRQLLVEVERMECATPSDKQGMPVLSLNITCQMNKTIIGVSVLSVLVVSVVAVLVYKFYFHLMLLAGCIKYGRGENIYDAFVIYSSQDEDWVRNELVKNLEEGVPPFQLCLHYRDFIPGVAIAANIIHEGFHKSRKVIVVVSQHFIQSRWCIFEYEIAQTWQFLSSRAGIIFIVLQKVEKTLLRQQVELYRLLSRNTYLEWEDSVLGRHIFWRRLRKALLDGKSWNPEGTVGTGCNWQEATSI
Mitogen-activated protein kinase 3 (Homo sapiens), sequence (P27361 whole entry, the tested form may be a part): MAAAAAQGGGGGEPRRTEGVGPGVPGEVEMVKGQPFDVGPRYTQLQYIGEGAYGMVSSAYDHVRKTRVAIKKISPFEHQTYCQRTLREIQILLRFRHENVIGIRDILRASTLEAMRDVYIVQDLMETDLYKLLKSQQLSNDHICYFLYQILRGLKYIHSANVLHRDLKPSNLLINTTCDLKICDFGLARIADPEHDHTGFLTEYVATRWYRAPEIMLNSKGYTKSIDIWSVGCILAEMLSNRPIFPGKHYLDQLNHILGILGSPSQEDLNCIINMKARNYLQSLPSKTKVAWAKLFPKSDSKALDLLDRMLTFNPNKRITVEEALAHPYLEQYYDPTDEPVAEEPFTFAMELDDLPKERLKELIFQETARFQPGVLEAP
Mitogen-activated protein kinase 11 (Homo sapiens), sequence (Q15759 whole entry, the tested form may be a part): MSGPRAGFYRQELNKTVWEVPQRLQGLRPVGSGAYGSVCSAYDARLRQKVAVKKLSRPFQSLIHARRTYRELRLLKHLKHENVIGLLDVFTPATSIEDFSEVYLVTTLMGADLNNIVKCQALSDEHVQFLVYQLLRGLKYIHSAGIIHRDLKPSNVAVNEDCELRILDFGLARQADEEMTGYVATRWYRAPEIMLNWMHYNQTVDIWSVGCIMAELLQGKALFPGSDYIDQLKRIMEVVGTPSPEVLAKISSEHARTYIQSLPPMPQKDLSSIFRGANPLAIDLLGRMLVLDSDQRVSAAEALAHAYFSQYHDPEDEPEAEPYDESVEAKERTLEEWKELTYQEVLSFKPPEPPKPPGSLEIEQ
Mitogen-activated protein kinase 14 (Homo sapiens), sequence (Q16539 whole entry, the tested form may be a part): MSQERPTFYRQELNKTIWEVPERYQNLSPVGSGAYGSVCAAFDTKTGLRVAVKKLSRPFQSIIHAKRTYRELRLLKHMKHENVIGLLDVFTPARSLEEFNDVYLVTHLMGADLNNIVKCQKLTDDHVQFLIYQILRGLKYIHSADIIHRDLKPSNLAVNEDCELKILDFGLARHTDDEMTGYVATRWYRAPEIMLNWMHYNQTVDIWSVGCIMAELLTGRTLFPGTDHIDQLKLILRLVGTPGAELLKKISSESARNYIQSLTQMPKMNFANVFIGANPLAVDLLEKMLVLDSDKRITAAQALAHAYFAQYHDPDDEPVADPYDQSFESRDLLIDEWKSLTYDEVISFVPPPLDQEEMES

SMILES: COc1ccc(/C=C/C(=O)NCCNC(=O)/C=C/c2ccc(OC)cc2OC)c(OC)c1
- inhibition (Mus musculus [1]): Active
- inhibition (Mus musculus [2]): Active
- inhibition (Mus musculus [3]): Active
- inhibition (Mus musculus [4]): Active
- Cmax [5]: 40 ng/mL
- inhibition [6]: inactive
- survival at 10 mg/kg (Mus musculus [7]): 100%
- inhibition [8]: inactive
- inhibition (Mus musculus [9]): Active
- inhibition [10]: inactive
- inhibition [11]: inactive
- Cmax [12]: 270 ng/mL
- Activity [13]: inactive
- Cmax [14]: 40 ng/mL
- inhibition (Mus musculus [15]): Active
- Cmax [16]: 550 ng/mL
- inhibition [17]: inactive
- inhibition (Mus musculus [18]): Active
- inhibition (Mus musculus [19]): Active
- inhibition [20]: inactive
- inhibition (Mus musculus [21]): Active
- inhibition [22]: inactive
- inhibition (Mus musculus [23]): Active
- inhibition (Mus musculus [24]): Active
- inhibition (Mus musculus [25]): Active
- inhibition (Mus musculus [26]): Active
- inhibition (Mus musculus [27]): Active
- Activity [28]: Non-toxic
